ChEMBL document CHEMBL1201862, “PubChem BioAssay data set” (2004)
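Dose response: 5 concentrations. Exposure: 48 h. Format: 96-well plates. Endpoint: linear interpolation; highest concentration if not reached. Here, GI50 denotes the concentration required for 50% inhibition of growth.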 Active and inactive are the calls of the source. Cut-off read from the data, not from the text of the source: active = GI50 up to about 1.1 µM and inactive = higher. Bridge positions count the residues as written; N and C are the ends. Square brackets hold non-standard residues; d marks the D form. Peptide text beside a SMILES is read from it. * marks the point of attachment. ξ: configuration not given here. NMeN = CN[C@@H](CC(N)=O)C(=O)O; NMeV = CN[C@H](C(=O)O)C(C)C; ξNMeV = CNC(C(=O)O)C(C)C; Cbz = O=C(OCc1ccccc1)*; Dab = NCC[CH](N)C(=O)O; Boc = CC(C)(C)OC(=O)*; ξNMeA = CNC(C)C(=O)O; Bn = c1ccc(C*)cc1

Tests used:
Test in all cases: growth of human tumour cells (NCI), 48 h
[1] = test system: HT-29
[2] = test system: IGROV-1
[3] = test system: OVCAR-5
[4] = test system: HCT-15
[5] = test system: RXF 393
[6] = test system: SK-MEL-2
[7] = test system: EKVX
[8] = test system: NCI/ADR-RES
[9] = test system: T47D
[10] = test system: SF-539
[11] = test system: MDA-N
[12] = test system: NCI-H226
[13] = test system: OVCAR-3
[14] = test system: SN12C
[15] = test system: BT-549
[16] = test system: UACC-62
[17] = test system: HCT-116
[18] = test system: CAKI-1
[19] = test system: SNB-75
[20] = test system: Hs-578T

SMILES | GI50 [1] | GI50 [2] | GI50 [3] | GI50 [4] [µM] | GI50 [5] | GI50 [6] | GI50 [7] | GI50 [8] | GI50 [9] | GI50 [10] | GI50 [11] | GI50 [12] | GI50 [13] | GI50 [14] | GI50 [15] | GI50 [16] | GI50 [17] | GI50 [18] | GI50 [19] | GI50 [20]
C=C1C(=O)OC2/C=C(/C)C3(O)OC(C)(CC(OC(=O)C(C)C)C12)CC3OC(C)=O (stereo unspecified) | 4.55 µM (inactive) | 4.5 µM (inactive) | 12.9 µM (inactive) | 4.45 | 1.47 µM (inactive) | 12 µM (inactive) | 10.6 µM (inactive) | 11.9 µM (inactive) | 13 µM (inactive) | 3.05 µM (inactive) | 2.04 µM (inactive) | 35.5 µM (inactive) | 11.5 µM (inactive) | 4.9 µM (inactive) | 5.79 µM (inactive) | 11 µM (inactive) | 5.3 µM (inactive) | 2.48 µM (inactive) | 47.5 µM (inactive) | 
CCCCCCCCCCCCCCCC(=O)OCC1OC(OC)C2NP(=O)(N(CCCl)CCCl)OC1C2O (stereo unspecified) | 17.1 µM (inactive) | 19 µM (inactive) | 20.8 µM (inactive) | 3.14 | 1.68 µM (inactive) | 8.3 µM (inactive) | 22 µM (inactive) |  | 2.73 µM (inactive) | 0.887 µM (active) |  | 10.9 µM (inactive) | 3.16 µM (inactive) | 1.05 µM (active) | 2.3 µM (inactive) | 1.23 µM (inactive) | 3.3 µM (inactive) | 0.752 µM (active) | 2.91 µM (inactive) | 
N#Cc1cccc(/C=N/C23CC4CC(CC(C4)C2)C3)c1 | > 100 µM (inactive) | > 100 µM (inactive) | > 100 µM (inactive) | > 100 | > 100 µM (inactive) | > 100 µM (inactive) | > 100 µM (inactive) |  |  | > 100 µM (inactive) |  | > 100 µM (inactive) | > 100 µM (inactive) | > 100 µM (inactive) |  | > 100 µM (inactive) | 57.3 µM (inactive) | > 100 µM (inactive) | > 10 µM (inactive) | 
C1CCN(C2OC3C(COC3N3CCCCC3)OC2OC2CCO[C@@H]2N2CCCCC2)CC1 (stereo partly specified) | 89.1 µM (inactive) | 79.3 µM (inactive) | > 100 µM (inactive) | 29.5 | 8.18 µM (inactive) | 20.8 µM (inactive) | 33.8 µM (inactive) |  |  | 16.5 µM (inactive) |  | 20 µM (inactive) | 24.8 µM (inactive) | 43.1 µM (inactive) |  | 13.4 µM (inactive) | 34.7 µM (inactive) | 30.1 µM (inactive) | 9.98 µM (inactive) | 
COC1=CC23C=CC1[C@@H](c1ccccc1)C2=C(C)C(=O)N3C(=O)NC1CCCCC1 (stereo partly specified) | 19.7 µM (inactive) | 61.2 µM (inactive) | 23.7 µM (inactive) | 5.11 | 3.45 µM (inactive) | 17.5 µM (inactive) | 28.7 µM (inactive) |  |  | 19.4 µM (inactive) |  | 20.4 µM (inactive) | 24.2 µM (inactive) | > 10 µM (inactive) |  | 26.5 µM (inactive) | 15 µM (inactive) | 16.9 µM (inactive) | 3.78 µM (inactive) | 
Cc1ccc(NS(=O)(=O)c2cc(C(C)(C)C)ccc2OCCOCCOCCOc2ccc(C(C)(C)C)cc2S(=O)(=O)Nc2ccc(C)cc2)cc1 | > 100 µM (inactive) | > 100 µM (inactive) | > 100 µM (inactive) | > 100 | > 100 µM (inactive) | > 100 µM (inactive) | > 100 µM (inactive) |  |  | > 100 µM (inactive) |  | > 100 µM (inactive) | > 100 µM (inactive) | > 100 µM (inactive) |  | > 100 µM (inactive) | > 100 µM (inactive) | > 100 µM (inactive) | > 100 µM (inactive) | 
CCCCCCCCCCCC(=O)OCC1OC(n2cc(F)c(=O)[nH]c2=O)C(N)C(O)C1O (stereo unspecified) | 55.3 µM (inactive) | > 100 µM (inactive) | 11.5 µM (inactive) | > 100 | > 100 µM (inactive) | > 100 µM (inactive) | > 100 µM (inactive) |  |  | > 100 µM (inactive) |  | > 100 µM (inactive) | > 100 µM (inactive) | > 100 µM (inactive) |  | 42 µM (inactive) | 88.1 µM (inactive) | 49 µM (inactive) | > 100 µM (inactive) | 
CC(C)CC1NC(=O)C(Cc2ccccc2)NC(=O)C(Cc2ccccc2)NC(=O)C(NC(=O)C(Cc2ccc(OCc3ccccc3)cc2)NC(=O)OCc2ccccc2)CCNC1=O (stereo unspecified) (Cbz-Y(Bn)[Dab]FFL; lactam 2-C; configuration not given here) | > 100 µM (inactive) | 78.5 µM (inactive) | > 100 µM (inactive) | 41.3 | > 100 µM (inactive) |  | > 100 µM (inactive) | > 100 µM (inactive) | 20.4 µM (inactive) | > 100 µM (inactive) | 36.1 µM (inactive) | > 100 µM (inactive) | > 100 µM (inactive) | > 100 µM (inactive) |  | 8.47 µM (inactive) | > 100 µM (inactive) | > 100 µM (inactive) |  | > 100 µM (inactive)
O=C1CCCn2c(nc3ccccc32)N1 | > 100 µM (inactive) | > 100 µM (inactive) | > 100 µM (inactive) | > 100 | > 100 µM (inactive) | > 100 µM (inactive) | > 100 µM (inactive) | > 100 µM (inactive) | > 100 µM (inactive) | > 100 µM (inactive) |  | > 100 µM (inactive) | > 100 µM (inactive) |  | > 100 µM (inactive) | > 100 µM (inactive) | > 100 µM (inactive) | > 100 µM (inactive) | > 100 µM (inactive) | > 100 µM (inactive)
COC(=O)C1=Cc2cc(OC)c(O)cc2[C@@H](c2ccc(O)c(OC)c2)[C@@H]1C(=O)OC | > 100 µM (inactive) | > 100 µM (inactive) | > 100 µM (inactive) | > 100 | 61.7 µM (inactive) |  | > 100 µM (inactive) | > 100 µM (inactive) | 60.5 µM (inactive) | > 100 µM (inactive) | 36.9 µM (inactive) | > 100 µM (inactive) | > 100 µM (inactive) | > 100 µM (inactive) |  |  | > 100 µM (inactive) |  | 58.1 µM (inactive) | 78.9 µM (inactive)
CC(C)=C1C(=O)C[C@]2(C)C[C@H]3/C(=C(/C)CCC12)CC[C@@]3(C)O (stereo partly specified) | > 50 µM (inactive) | > 50 µM (inactive) | > 50 µM (inactive) | 40.1 | 40.9 µM (inactive) | > 50 µM (inactive) | > 50 µM (inactive) | > 50 µM (inactive) | 46.9 µM (inactive) | > 50 µM (inactive) |  | > 50 µM (inactive) | 37.7 µM (inactive) | > 50 µM (inactive) | > 50 µM (inactive) | > 50 µM (inactive) | 46.2 µM (inactive) | > 50 µM (inactive) | 19.1 µM (inactive) | > 50 µM (inactive)
O/N=C1/COC(C(F)(F)F)(C(F)(F)F)C1 | > 100 µM (inactive) | > 100 µM (inactive) | > 100 µM (inactive) | > 100 | > 100 µM (inactive) | > 100 µM (inactive) | > 100 µM (inactive) | > 100 µM (inactive) | > 100 µM (inactive) | > 100 µM (inactive) |  | > 100 µM (inactive) | > 100 µM (inactive) | > 100 µM (inactive) |  | > 100 µM (inactive) | > 100 µM (inactive) | > 100 µM (inactive) | > 100 µM (inactive) | > 100 µM (inactive)
COc1ccc([C@]23CCN(S(=O)(=O)c4ccc(C)cc4)[C@H]2[C@H](CO)C2(CC3)OCC(C)(C)CO2)cc1OC | > 100 µM (inactive) | > 100 µM (inactive) | > 100 µM (inactive) | > 100 | 98.6 µM (inactive) | > 100 µM (inactive) | > 100 µM (inactive) | > 100 µM (inactive) | > 100 µM (inactive) |  | > 100 µM (inactive) | > 100 µM (inactive) | > 100 µM (inactive) | > 100 µM (inactive) | > 100 µM (inactive) | > 100 µM (inactive) | > 100 µM (inactive) | > 100 µM (inactive) | > 100 µM (inactive) | 
COC(=O)C(C)N(C)C(=O)[C@H](CC(N)=O)N(C)C(=O)[C@@H]1CCCN1C(=O)[C@H](C(C)C)N(C)C(=O)C(C(C)C)N(C)C(=O)[C@@H](NC(=O)OC(C)(C)C)C(C)C (stereo partly specified) (Boc-V[ξNMeV][NMeV]P[NMeN][ξNMeA]-OMe) | > 50 µM (inactive) | > 50 µM (inactive) | > 50 µM (inactive) | > 100 | > 50 µM (inactive) | > 50 µM (inactive) | > 50 µM (inactive) | > 50 µM (inactive) | > 50 µM (inactive) | > 50 µM (inactive) | > 50 µM (inactive) | > 50 µM (inactive) | > 50 µM (inactive) | > 50 µM (inactive) | > 50 µM (inactive) | > 50 µM (inactive) | 30.3 µM (inactive) | > 50 µM (inactive) | > 100 µM (inactive) | 
C/C(=N\N(C)C)C(CN1CCCCC1)C(c1ccccc1)c1c(O)c2ccccc2oc1=O (stereo unspecified) | > 100 µM (inactive) | > 100 µM (inactive) | > 100 µM (inactive) | > 100 | > 100 µM (inactive) | > 100 µM (inactive) | > 100 µM (inactive) |  |  | > 100 µM (inactive) |  | 37.5 µM (inactive) | > 100 µM (inactive) | > 100 µM (inactive) |  | 80.4 µM (inactive) | > 100 µM (inactive) | > 100 µM (inactive) | 28.3 µM (inactive) | 
COc1cc(C(C)c2cc3c(cc2OCCCCOc2cc4c(cc2C(C)c2cc(OC)c(OC)c(OC)c2)OCO4)OCO3)cc(OC)c1OC (stereo unspecified) | 68.9 µM (inactive) | 49.9 µM (inactive) | > 100 µM (inactive) | 34.8 | 17.6 µM (inactive) | 42.3 µM (inactive) | 40.5 µM (inactive) |  |  | 23.7 µM (inactive) |  | 31.5 µM (inactive) | 21.7 µM (inactive) | 29.6 µM (inactive) |  | 21.1 µM (inactive) | 31.7 µM (inactive) | > 100 µM (inactive) | 24.8 µM (inactive) | 
